Source: PMC4377982 (Marine Drugs, 2015)

Biological target: T1, human α7 nicotinic acetylcholine receptor (α7 nAChR) (Homo sapiens, UniProt P36544)
T1 construct: gene CHRNA7; human α7 nAChR transfected in GH4C1 cells
Test: radioligand competition with on GH4C1 cells; agonism also shown by Ca2+ imaging in Neuro2a cells with PNU120596 (EC50 […])
Type: cell-based

T1 sequence (P36544 23-502): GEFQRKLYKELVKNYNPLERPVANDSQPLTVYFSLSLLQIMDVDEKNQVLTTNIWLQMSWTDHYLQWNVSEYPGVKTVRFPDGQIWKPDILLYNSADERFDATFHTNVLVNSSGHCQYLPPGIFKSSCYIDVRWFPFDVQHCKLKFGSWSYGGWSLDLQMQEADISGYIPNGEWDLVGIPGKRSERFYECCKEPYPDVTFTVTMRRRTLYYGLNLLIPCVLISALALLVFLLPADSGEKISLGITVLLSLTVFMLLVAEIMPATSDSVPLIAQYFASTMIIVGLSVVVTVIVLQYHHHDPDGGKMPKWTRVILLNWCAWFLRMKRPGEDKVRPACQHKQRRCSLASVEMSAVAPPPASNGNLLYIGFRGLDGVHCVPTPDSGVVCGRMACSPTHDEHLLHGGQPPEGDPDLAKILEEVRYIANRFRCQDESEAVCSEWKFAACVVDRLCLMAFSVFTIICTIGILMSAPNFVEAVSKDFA

C[N+](C)(C)[C@@H](Cc1c[nH]c2cc(Br)ccc12)C(=O)[O-] [6-BHP, 6-Bromohypaphorine]
IC50: 23 ± 1 µM
